According to patent US20150247149A1, “Detecting and Treating Liver Damage” (The Regents of the University of California, priority 2012, published 2015):
Blank lines part the entries; values can stand above or below the compound they belong to.

What was measured:
[1] = tested on: HUVECs; assay: HUVEC tube formation assay; type: cell-based, human
Protocol: HUVECs (0.5-1×10^5 cells per well) were seeded onto a coated 24-well plate culture dishes with 200 μl/cm2 (thick gel method) of Matrigel (BD, Franklin Lakes, N.J., USA) and cultured in EBM-2 basal medium supplemented with 1.1% of streptomycin and penicillin in the presence of 100 ng/mL of VEGF (Peprotech, Rocky Hill, N.J., USA), hepatocytes-derived MPs, MP-free supernatant or conditioned supernatant collected after 24 hours of treatment with FFAs. In selective studies, a specific inhibitor for RhoA-ROCK (Y27632, 10 μM) was used in association with MPs in the treatment of endothelial cells. For the ex vivo studies, PFP isolated from different groups of mice (chow, HF/HCarb, MCD fed mice and mice injected with control RNA, VNN1 siRNA or PBS as vehicle) were ultracentrifuged at 100,000 g for 1 h at 10° C. to pellet the blood MPs. HUVECs were treated with MPs (or blood pure MPs) and incubated for 5 h at 37° C. Tube formation was investigated by using an inverted microscope at 4× magnification and images were captured. Tube formation image analysis was assessed by using Wimtube software (Wimasis, Munich, Germany) and the values referred to total tube length (pixel) were used for statistical and data analysis.

[2] = tested on: HUVECs; assay: HUVEC migration (Boyden's chamber chemotaxis, wound healing); type: cell-based, human
Protocol: In vitro migration studies have been performed by using human umbilical cell endothelial cells (HUVECs). Wound healing assay was performed to analyze chemokinesis (non-oriented migration) by using collagen-coated 6-well culture plate, where a silicon elastomer (PDMS) strip was placed vertically to the bottom of every well to create the artificial wound. HUVECs were plated and grown until reaching the complete confluence. HUVECs were treated with EBM-2 supplemented with 100 ng/mL of VEGF (Peprotech, Rocky Hill, N.J., USA), hepatocytes-derived MPs, MP-free supernatant or supernatant collected after 24 hours of treatment with FFAs. The strips were removed carefully and migration of cells was detected by a confocal microscope, capturing one picture per field every 10 minutes for 48 hours. Mitomycin (1 μg/ml) was used to inhibit cell proliferation during wound healing assay. Data were analyzed by using Wimscratch software (Wimasis, Munich, Germany) in order to get the total cell-covered area (pixel). Boyden's chamber assay was performed to analyze chemotaxis (oriented migration) by using cell culture inserts 8 μm pore size (Millipore, Billerica, Mass., USA) and 24-well plate. Each well was filled with 500 μl of serum free EBM-2 media in presence or absence of the following chemoattractants: 100 ng/mL VEGF; hepatocytes-derived MPs; MP-free supernatant or conditioned supernatant. The inserts were placed on top of each well and 150 μl of cell suspension (5×10^4 cells) was added. Plates were incubated overnight at 37° C., and then the filters were removed and stained with Vectashield mounting medium with 4′,6-diamino-2-phenylindole (DAPI) (Vector Labs, Burlingame, Calif., USA).
Migrated cells were detected with a fluorescence microscope and number per field of their nuclei was counted. For the ex vivo studies, PFP isolated from different groups of mice (chow, HF/HCarb, MCD fed mice and mice injected with control siRNA, VNN1 siRNA or PBS as vehicle) were ultracentrifuged at 100,000 g for 1 h at 10° C. to pellet the blood MPs.

[3] = tested on: HepG2 and primary rat hepatocytes; assay: Release of Annexin V-positive MPs from hepatocytes (flow cytometry); type: cell-based, human (HepG2); rat (primary hepatocytes); details: palmitic acid-treated hepatocytes co-incubated with caspase 3 inhibitor (FIGS. 2E, 2G)
Protocol: For microparticles (MPs) isolation, HepG2 and primary rat hepatocytes were seeded onto a 100 mm dish and cultured until reaching 80-85% of confluence. Cells were incubated with 0.25 mM of palmitic, stearic, oleic or linoleic acid (FFA) in serum-free DMEM, supplemented with 1.1% penicillin and streptomycin, 1% endotoxin-free bovine serum albumin (BSA), for up to 24 h. […] The uptake of FFAs from hepatocytes was evaluated by Oil red-O staining kit (Cayman, Ann Arbor, Mich., USA) according to the manufacturer instruction. To determine the effect of caspase 3 activity, hepatocytes were treated with a selective caspase 3 inhibitor, Ac-DEVD-CHO (BD Pharmingen, Franklin Lakes, N.J., US). Control cells were incubated with the same serum-free media in association to the vehicle that was used to dissolve the FFAs. After 24 h, the supernatant were collected and centrifuged twice at 3,000 rpm for 15 minutes to remove cell debris and aggregates. The supernatant was then transferred to new tubes and ultracentrifuged at 100,000 g for 90 minutes at 10° C., to avoid contamination of exosomes.
The supernatant was collected in new tubes and used as a MP-free control and the pelleted MPs were resuspended in 200 μl of PBS for flow cytometry or in 500 μl of EGM-2 growth medium for subsequent in vitro studies. The concentration of microparticles μg/mL was determined by the BCA protein assay and different concentrations of MPs (50, 125, 250 and 500 μg/mL) were used to perform the dose-dependent angiogenesis in vitro assays. For selected purposes, in particular for the characterization analyses, crude MPs were purified by 10-70% sucrose gradient ultracentrifugation at 150,000 g for 18 h at 10° C., collected as fractions in new tubes. […]
Flow cytometry analyses for microparticles (or endothelial cells) detection were performed by using BD LSRII Flow Cytometer System (BD Biosciences, San Jose, Calif., USA) and the data were analyzed using FlowJo software (TreeStar Inc., Ashland, Oreg., USA). […]

[4] = tested on: HUVECs; assay: Internalization of microparticles into endothelial cells; type: cell-based, human; details: HUVECs pre-treated with 10 mM MβCD 15 min or 2.5 μg/mL cav-1 nAb 30 min at 37° C., then MPs 6 h
Protocol: Internalization of hepatocyte-derived MPs into HUVECs and the role of VNN1 and lipid raft were evaluated by flow cytometry, indirect immunofluorescence and electron microscopy. To investigate the MPs internalization into HUVECs, by flow cytometry, MPs were stained with 1 μM of Calcein, AM (MPCalcein) (BD Biosciences), a fluorescent dye with an emission wavelength of 515 nm, for 1 h in the dark at 37° C. MPs were centrifuged twice with PBS for 30 minutes at 35,000 rpm and resuspended in 500 μL of EGM medium. To block MPs internalization, MPsCalcein were incubated with or without 4 μg/mL of rabbit polyclonal anti-VNN1 antibody (S3055; Epitomics, Burlingame, Calif., USA) for 30 minutes at RT. A rabbit anti-GAPDH antibody (Abcam, Cambridge, Mass., USA) was used as a control. […] Cells were trypsinized and FITC positive HUVECs were detected by BD LSRII Flow Cytometer System (BD) and counted. […]
The MPs suspension was incubated in the dark for 4 minutes, and then 2 mL of 1% BSA was added and kept for 1 minute to stop the reaction. […] HUVECs (4×10^3 cell per well) were seeded onto a 24-well plate and depletion of cholesterol was assessed by a treatment with 10 mM of Methyl-β-cyclodextrin (MβCD) in serum-free EBM-2 medium for 15 minutes at 37° C., followed by wash with fresh medium. […]

[5] = HUVECs treated with MPs and Y27632, 10 μM

Compound: C[C@@H](N)[C@H]1CC[C@H](C(=O)Nc2ccncc2)CC1 [Y-27632]
tube formation (MP-mediated) [1, 5]: significant decrease
chemotaxis (MP-mediated) [2, 5]: significant decrease

tube formation induced by cell-free supernatants of FFA-treated hepatocytes ([1]; supernatants from HepG2/primary rat hepatocytes incubated with FFA up to 24 h, VEGF-A positive control): marked increase
endothelial cell oriented (chemotaxis) and non-oriented migration induced by cell-free supernatants of FFA-treated hepatocytes ([2]; supernatants from hepatocytes incubated with FFA up to 24 h, VEGF-A positive control): marked increase
Compound: CCCCCCCCCCCCCCCCCC(=O)O [stearic acid]

Compound: Ac-DEVD-CHO [selective caspase 3 inhibitor]
formation and release of MPs [3]: drastically reduced

Compound: Methyl-β-cyclodextrin
MPs internalization into the endothelial cells [4]: marked reduction
